Assay results taken from publication PMC6753678, “Fueling Open Innovation for Malaria Transmission-Blocking Drugs: Hundreds of Molecules Targeting Early Parasite Mosquito Stages” (Frontiers in Microbiology, 2019).

What was measured:
HepG2 cells = assay: HepG2 cytotoxicity assay; conditions: HepG2 cytotoxicity unified across screens; >25 set to 25.00
In short: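 HepG2 cells, 2,500 per well in MEM with 10% FBS and 1% NEAA, exposed to compounds for 48 h at 37°C, 5% CO2. Viability read by fluorescence; percent inhibition relative to 50 μM doxorubicin and DMSO controls.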

[1] = system: P. falciparum late stage (stages IV-V) gametocytes; parameters: method as in Almela et al 2016; conditions: P. falciparum late stage gametocyte ATP assay, TCAMS screen; ref Almela et al 2016; read-out: Pf GCT ATP IC50; cited from earlier work
[2] = system: P. falciparum late stage (stages IV-V) gametocytes; assay: P. falciparum late stage gametocyte ATP depletion assay (Pf GC-ATP); conditions: 1: YES; 0: NO; >10-fold selectivity over cytotoxicity

| SMILES | Unified cytotox (HepG2 cells) [µM] | IC50 [1] [nM] | Is compound selective in assay? Pf GC-ATP active? [2] |
| --- | --- | --- | --- |
| O=C(Nc1ccc(Cl)c(Cl)c1)Nc1ccccc1N1CCNCC1.O=C(O)C(F)(F)F [TCMDC-133727] | 11.20 | 7420 | 0 (0: NO) |
| NC1CCN(Cc2ccc(-c3ccc(-c4nc5cc(F)ccc5[nH]4)cc3)cc2)C1.O=C(O)C(F)(F)F (stereo not drawn) [TCMDC-133872] | 7.25 | 830 | 0 (0: NO) |
| O=C(O)C(F)(F)F.c1cc(CN2CCC(CCN3CCCCC3)CC2)cc(-c2cccc(-c3nc4ccccc4[nH]3)c2)c1 [TCMDC-133920] | 13.10 | 290 | 1 (1: YES) |
| Cc1cccc2nc(-c3ccc(-c4cccc(CN5CCC(CCN6CCCCC6)CC5)c4)s3)[nH]c12.O=C(O)C(F)(F)F [TCMDC-133923] | 3.87 | 460 | 0 (0: NO) |
| Cc1cccc2nc(-c3ccc(-c4ccc(CN5CCC(CCN6CCCCC6)CC5)cc4)cc3)[nH]c12.O=C(O)C(F)(F)F [TCMDC-133929] | 3.70 | 270 | 1 (1: YES) |
| Fc1ccc2[nH]c(-c3ccc(-c4ccc(CN5CCC(CCN6CCCCC6)CC5)cc4)s3)nc2c1.O=C(O)C(F)(F)F [TCMDC-133932] | 3.79 | 140 | 1 (1: YES) |
| COc1ccc(-c2cnn3ccc(Nc4cc(OC)c(OC)c(OC)c4)nc23)cc1OC [TCMDC-134383] | 12.90 | 1620 | 0 (0: NO) |
| CCc1ccc(CN2CCC(CNC(=O)c3cc(-c4cccc(F)c4)cs3)C2)cc1.O=C(O)C(F)(F)F (stereo not drawn) [TCMDC-134432] | 7.22 | 1260 | 0 (0: NO) |
| COc1ccccc1CCNc1nc(C)cc(N[C@@H](Cc2ccccc2)C(=O)NCc2cccc(F)c2)n1.O=C(O)C(F)(F)F [TCMDC-134893] | 6.30 | 5300 | 0 (0: NO) |
| CC(C)(C)OC(=O)NCc1ccc(Nc2nnc(-c3ccc(OCC(=O)NCc4ccc(C(C)(C)C)cc4)c([N+](=O)[O-])c3)o2)cc1 [TCMDC-134991] | 3.15 | 700 | 0 (0: NO) |
| CN1CCN(CC2(Nc3nccc(NCCc4cn(C)c5ccccc45)n3)CCCCC2)CC1 [TCMDC-135122] | 6.94 | 700 | 0 (0: NO) |
| COc1cc(NC(=O)c2sc(-c3ccc(Cl)cc3)cc2NC(=O)c2ccncc2)ccc1OCCN1CCCC1 [TCMDC-135398] | 3.23 | 150 | 1 (1: YES) |
| CCN(CC)CCCNc1nccc(N2CCc3ncnc(Nc4ccc(OCc5cccc(F)c5)c(Cl)c4)c3C2)n1 [TCMDC-135406] | 5.58 | 720 | 0 (0: NO) |
| COc1cc2ccccc2cc1OCCCN1CCN(CC(c2ccc(F)cc2)N2CCN(C(C)C)CC2)CC1.Cl (stereo not drawn) [TCMDC-135496] | 3.72 | 1250 | 0 (0: NO) |
| COC(=O)c1sc(-c2ccc(Cl)cc2)cc1N(CCCN1CCC(N2CCCCC2)CC1)S(=O)(=O)c1ccc(C)cc1 [TCMDC-135561] | 4.37 | 3360 | 0 (0: NO) |
| CC(C)(C)N1CCC(N(Cc2ccc(-c3ccc(C(F)(F)F)cc3)cc2)C(=O)Cn2c(CCc3cccc(F)c3F)cc(=O)c3cccnc32)CC1.O=C(O)C(O)C(O)C(=O)O [TCMDC-136011] | 3.10 | 2390 | 0 (0: NO) |
| CCn1c(-c2nonc2N)nc2c(-c3cccc(NC(=O)Nc4ccccc4OC)c3)ncc(OCCCN)c21.O=C(O)C(F)(F)F [TCMDC-136190] | 5.90 | 440 | 1 (1: YES) |
| CCn1c(-c2nonc2N)nc2c(-c3cccc(NC(=O)Nc4cccc(C#N)c4)c3)ncc(OCCCN)c21.O=C(O)C(F)(F)F [TCMDC-136195] | 24.70 | 3510 | 0 (0: NO) |
| Cl.NCCCOc1cnc(-c2ccccc2)c2nc(-c3nonc3N)n(CCc3ccccc3)c12 [TCMDC-136216] | 5.61 | 1400 | 0 (0: NO) |
| O=C(Nc1ccc(F)c(C(F)(F)F)c1)NC1CCN(CCCCCNC(=O)C2CC2c2ccc(Cl)c(Cl)c2)CC1 (stereo not drawn) [TCMDC-136259] | 6.40 | 4350 | 0 (0: NO) |
| C[C@H]1CN(Cc2cccc(-c3cc(CNC(=O)c4cccc(CC5CCN(C)CC5)c4)ccc3F)c2)CCN1C [TCMDC-136349] | 6.97 | 850 | 0 (0: NO) |

| SMILES | Unified cytotox (HepG2 cells) [µM] | IC50 [1] [nM] | Is compound selective in assay? Pf GC-ATP active? [2] |
| --- | --- | --- | --- |
| COc1cc(Br)c(S(=O)(=O)n2cc(CN3CCC(N)CC3)c3cc(Cl)ccc32)cc1OC.O=C(O)C(F)(F)F [TCMDC-136384] | 6.70 | 2420 | 0 (0: NO) |
| CN(C)Cc1ccc(-c2cccc(Nc3nccc(NCC(O)c4ccccc4)n3)c2)cc1 (stereo not drawn) [TCMDC-136467] | 5.87 | 900 | 0 (0: NO) |
| Fc1ccc(N(c2nc(-c3cc(F)cc(C(F)(F)F)c3)cs2)C2CCNCC2)cc1.O=C(O)C(F)(F)F [TCMDC-136656] | 6.60 | 3280 | 0 (0: NO) |
| CN(C)CCNC(=O)c1ccc(-c2cnc3ccc(NCc4ccc(Cl)c(Cl)c4)nn23)cc1 [TCMDC-136678] | 16.66 | 330 | 1 (1: YES) |
| CCNCc1cccc(-c2ccc3ccnc(N)c3c2)c1 [TCMDC-136869] | 12.50 | 1660 | 0 (0: NO) |
| FC(F)c1nc2ccccc2n1-c1nc(N2CCOCC2)nc(N2CCOCC2)n1 [TCMDC-137004] | 1.58 | 5440 | 0 (0: NO) |
| CS(=O)(=O)O.FC(F)(F)COc1c(CCNCCCCNCCc2ccc3ccccc3c2OCC(F)(F)F)ccc2ccccc12 [TCMDC-137169] | 2.80 | 100 | 1 (1: YES) |
| CCN(CC)CCOc1ccc(C(O)(C#CC(O)(c2ccccc2)c2ccc(OCCN(CC)CC)cc2)c2ccccc2)cc1 (stereo not drawn) [TCMDC-137197] | 3.67 | 690 | 0 (0: NO) |
| CCN(CC)CCOc1ccc(C(O)(C#CC(O)(c2ccc(C)cc2)c2ccc(OCCN(CC)CC)cc2)c2ccc(C)cc2)cc1 (stereo not drawn) [TCMDC-137198] | 1.62 | 140 | 1 (1: YES) |
| CCN(CC)CCOc1ccc(C(O)(C#CC(O)(c2ccc(OCCN(CC)CC)cc2)c2ccc([N+](=O)[O-])cc2)c2ccc([N+](=O)[O-])cc2)cc1 (stereo not drawn) [TCMDC-137201] | 6.20 | 220 | 1 (1: YES) |
| CCc1cc(COc2ccc(CNCCC(C)C)cc2I)c(OCc2ccccc2)c(COc2ccc(CNCCC(C)C)cc2I)c1.Cl [TCMDC-137255] | 5.80 | 1020 | 0 (0: NO) |
| CC(C)CCNCc1ccc(OCc2cccc(COc3ccc(CNCCC(C)C)cc3I)c2)c(I)c1.Cl [TCMDC-137274] | 5.30 | 370 | 1 (1: YES) |
| Cl.N=C(NCCCc1ccccc1)c1cccc(C(=N)NCCCc2ccccc2)n1 [TCMDC-137453] | 12.80 | 310 | 1 (1: YES) |
| COc1cc(CCNC(=N)/C=C/c2ccc(Cl)cc2)ccc1Cl.Cl [TCMDC-137457] | 14.00 | 280 | 1 (1: YES) |
| CCCCN(CCCC)CCCCNc1c2ccccc2nc2ccccc12.Cl [TCMDC-137461] | 19.00 | 550 | 1 (1: YES) |
| COc1ccc2nc3cc(Cl)ccc3c(NCCN3CCN(C)CC3)c2c1 [TCMDC-137476] | 19.33 | 1880 | 1 (1: YES) |
| CN1CCN(CCCCNc2c3ccccc3nc3ccccc23)CC1 [TCMDC-137479] | 3.39 | 1320 | 0 (0: NO) |
| Br.C=CCNC(CCCCC)c1ccc(OCCOc2ccc(C(CCCCC)NCC=C)cc2)cc1 (stereo not drawn) [TCMDC-137483] | 5.80 | 910 | 0 (0: NO) |
| CCCCN1CCN(CCCCNc2c3ccccc3nc3ccccc23)CC1.Cl [TCMDC-137569] | 12.68 | 1190 | 1 (1: YES) |
| COc1ccc2nc3cc(Cl)ccc3c(NCCCCN3CCNCC3)c2c1.Cl [TCMDC-137578] | 5.00 | 660 | 0 (0: NO) |
| Br.CCCCC(NCC)c1ccc(OCCOc2ccc(C(CCCC)NCC)cc2)cc1 (stereo not drawn) [TCMDC-137612] | 6.10 | 420 | 1 (1: YES) |
